The text below walks through data of patent US20240336604A1 (THE UNITED STATES OF AMERICA, AS REPRESENTED BY THE …, priority 2021, published 2024).

Experiment [1] concerns the target T1, D3 DAR (Homo sapiens, UniProt P35462). Briefly: [3H]-methylspiperone radioligand binding assay. Conditions: indicated concentrations, FIG. 1B. The protocol: Compounds were tested for their ability to compete with the orthosteric radioligand [^3H]-methylspiperone for binding to the D3 DAR using HEK cells transiently transfected with the D3 DAR as described in the detailed protocol below presented in Table 5. Cells were cultured in Dulbecco's modified Eagle's Medium (Corning, catalogue no. 10-013) containing 10% FBS, 1,000 units/mL Penicillin, […] Streptomycin, 100 mM sodium pyruvate, 1 μg/mL Gentamicin, and […] G418. All cells were maintained at 37° C. in 5% CO2 and 90% humidity. For radioligand binding assays cells were removed mechanically using calcium-free Earle's balanced salt solution (EBSS). Intact cells were collected by centrifugation and then lysed with 5 mM Tris-HCl and 5 mM MgCl2 at pH 7.4. Homogenates were centrifuged at 30,000×g for 30 minutes. The membranes were re-suspended in EBSS (US Biological, catalogue no. E0249-05) pH 7.4 to a concentration of 16 μg/mL. For competition binding studies, membrane preparations were incubated for 90 minutes at room temperature with various concentrations of compound and a single concentration of [^3H]-methylspiperone (Perkin Elmer, NET856) in a reaction volume of […]. Non-specific binding was determined in the presence of 4 μM (+)-butaclamol (Sigma-Aldrich, catalogue no. D033). Bound ligand was separated from unbound by filtration through GF/C filters using a PerkinElmer cell harvester and quantified on a Top-count (PerkinElmer). Ki values were determined using Cheng-Prusoff equation from observed IC50 values and ligand Kd values from separate saturation experiments.

Experiment [2] addresses T2, D2 DAR (Homo sapiens, UniProt P14416). Briefly: BRET β-arrestin recruitment assay, D2 DAR. The experiment is classed as cell-based. To be noted: FIG. 3A right. The protocol: BRET β-arrestin recruitment assay: As an orthogonal test using an unrelated assay of D2- or D3 DAR-mediated β-arrestin recruitment, an arrestin BRET assay was conducted. HEK293T cells transiently expressing D2-Rluc8, Arrestin3-mvenus and GRK2, or D3-Rluc8, Arrestin3-mvenus, and GRK3 were harvested with EBSS, plated in 96-well plates in Dulbecco's phosphate-buffered saline (DPBS) and incubated at rt for 45 min. […] BRET signal was determined by quantifying and calculating the ratio of the light emitted by mVenus (525 nm) over that emitted by RLuc8 (485 nm) using a PHERAstar FSX Microplate Reader (BMG Labtech).
(BRET reads energy transfer from a luciferase to a nearby fluorophore.)

The target of experiment [3] is T1, D3 DAR. Briefly: Go BRET activation assay, D3 DAR. The experiment is classed as cell-based. Conditions: EC80 DA (30 nM). The protocol: (§1) Briefly, HEK293T cells transiently expressing either the D2 DAR or D3 DAR and GαoA-Rluc8, untagged-β1, and mVenus-γ2 were harvested with EBSS, plated in 96-well white plates at 20,000 cells/well in DPBS and incubated at RT for 45 min. […] BRET signal was determined by quantifying and calculating the ratio of the light emitted by mVenus (525 nm) over that emitted by RLuc8 (485 nm) using a PHERAstar FSX Microplate Reader (BMG Labtech).

Experiment [4] deals with T2, D2 DAR. Briefly: Go BRET activation assay, D2 DAR. To be noted: FIG. 3B right. In kind it is cell-based. The protocol:
as §1

In experiment [5] the target is T2, D2 DAR. Briefly: cAMP CAMYEL biosensor assay, D2 DAR. In kind it is cell-based. Conditions: FIG. 3C right. The protocol: cAMP CAMYEL biosensor assay: HEK293 cells transiently expressing the D2 DAR or D3 DAR and the CAMYEL cAMP biosensor (yellow fluorescence protein-Epac-Rluc) were harvested with EBSS, plated in 96-well white plates at 20,000 cells/well in DPBS and incubated at room temperature for 45 min. […] BRET signal was determined by quantifying and calculating the ratio of the light emitted by mVenus (525 nm) over that emitted by RLuc8 (485 nm) using a PHERAstar FSX Microplate Reader (BMG Labtech).

The next experiment addresses 5-HT6 receptor (Homo sapiens, UniProt P50406). Briefly: 5-HT6 cAMP recruitment assay. In kind it is cell-based. To be noted: read-out: IC50, antagonism of the 5-HT6 receptor.
Experiment [6] relates to other dopamine receptor subtypes. Put plainly: DiscoverX β-arrestin assay, other dopamine receptors. The experiment is classed as cell-based. Conditions: FIG. 1A. The text has this:
For a secondary-screen and selectivity assays, DAR PathHunter®-arrestin GPCR cell lines from DiscoverX (Fremont, CA) were used. In the D2 DAR PathHunter®-arrestin GPCR cell line, the D2 DAR is overexpressed and fused with a small 42-amino acid fragment of β-galactosidase called ProLink™ on a CHO cellular background expressing a fusion protein of β-arrestin and a larger N-terminal deletion mutant of β-galactosidase (“enzyme acceptor”). When the D2 DAR is activated by dopamine, it stimulates binding of β-arrestin to the ProLink-tagged DAR and the two complementary parts of β-galactosidase form a functional enzyme. When substrate (PathHunter™ Detection reagent) is added, β-galactosidase hydrolyzes it and generates a chemiluminescent signal.

For experiment [7], the target named is T2, D2 DAR. Put plainly: DiscoverX D2 DAR β-arrestin recruitment assay. The experiment is classed as cell-based. Set-up: host or cells: CHO. To be noted: EC80 concentration of DA (1 μM). Summed up: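 CHO cells co-expressing ProLink-tagged D2 DAR and enzyme-acceptor-fused β-arrestin (PathHunter enzyme-fragment complementation). Receptor activation recruits β-arrestin, reconstituting β-galactosidase; detection reagent hydrolysis gives chemiluminescent read-out. Same PathHunter format used for other dopamine receptor subtypes.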
(In general: Recruitment of arrestin is a read-out of receptor activation apart from second messengers.)

Experiment [8] has as its target T2, D2 DAR. Put plainly: ERK1/2 phosphorylation assay, D2 DAR. The experiment is classed as cell-based. Set-up: host or cells: CHO. Conditions: FIG. 3D right. The protocol:
ERK1/2 Phosphorylation assay: ERK1/2 phosphorylation was measured using the Alphascreen SureFire Ultra ERK kit (PerkinElmer, Waltham, USA). CHO-K1 cells stably expressing either the D2 DAR or D3 DAR were seeded into 384-well small volume white plates at a density of 40,000 cells/well in serum-free Ham's F12 media overnight. […] The plate was shaken for 10 min at RT, followed by the addition of Surefire activation buffer, Surefire reaction buffer, Alphascreen acceptor beads, and Alphascreen donor beads in ratios specified by the manufacturer. The plate was incubated in the dark for 2 h, then read using a PHERAstar FSX Microplate Reader (BMG Labtech).

T1 sequence (P35462 whole entry): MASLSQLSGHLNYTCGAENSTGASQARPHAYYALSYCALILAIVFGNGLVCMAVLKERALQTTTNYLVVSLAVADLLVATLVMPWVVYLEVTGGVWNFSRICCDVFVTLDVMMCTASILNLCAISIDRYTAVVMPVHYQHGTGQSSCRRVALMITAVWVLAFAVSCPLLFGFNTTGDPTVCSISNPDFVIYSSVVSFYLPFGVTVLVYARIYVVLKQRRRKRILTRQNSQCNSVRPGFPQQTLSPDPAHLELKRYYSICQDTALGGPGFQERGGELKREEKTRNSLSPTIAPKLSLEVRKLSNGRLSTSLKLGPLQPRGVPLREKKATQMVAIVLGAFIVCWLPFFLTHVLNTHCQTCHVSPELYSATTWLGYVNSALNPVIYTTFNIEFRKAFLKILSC
T2 sequence (P14416 whole entry): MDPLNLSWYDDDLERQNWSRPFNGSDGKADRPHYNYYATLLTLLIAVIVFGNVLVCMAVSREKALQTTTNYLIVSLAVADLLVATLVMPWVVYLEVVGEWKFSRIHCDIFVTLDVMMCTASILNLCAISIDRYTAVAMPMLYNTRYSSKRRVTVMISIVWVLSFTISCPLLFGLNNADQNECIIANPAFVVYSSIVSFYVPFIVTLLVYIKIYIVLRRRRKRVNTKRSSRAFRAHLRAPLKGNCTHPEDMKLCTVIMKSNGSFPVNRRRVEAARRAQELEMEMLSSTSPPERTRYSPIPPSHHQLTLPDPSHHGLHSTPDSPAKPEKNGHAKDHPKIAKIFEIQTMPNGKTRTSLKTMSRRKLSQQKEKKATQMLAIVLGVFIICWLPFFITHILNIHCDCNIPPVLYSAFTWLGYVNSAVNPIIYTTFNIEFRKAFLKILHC
Sequence of 5-HT6 receptor (P50406 whole entry): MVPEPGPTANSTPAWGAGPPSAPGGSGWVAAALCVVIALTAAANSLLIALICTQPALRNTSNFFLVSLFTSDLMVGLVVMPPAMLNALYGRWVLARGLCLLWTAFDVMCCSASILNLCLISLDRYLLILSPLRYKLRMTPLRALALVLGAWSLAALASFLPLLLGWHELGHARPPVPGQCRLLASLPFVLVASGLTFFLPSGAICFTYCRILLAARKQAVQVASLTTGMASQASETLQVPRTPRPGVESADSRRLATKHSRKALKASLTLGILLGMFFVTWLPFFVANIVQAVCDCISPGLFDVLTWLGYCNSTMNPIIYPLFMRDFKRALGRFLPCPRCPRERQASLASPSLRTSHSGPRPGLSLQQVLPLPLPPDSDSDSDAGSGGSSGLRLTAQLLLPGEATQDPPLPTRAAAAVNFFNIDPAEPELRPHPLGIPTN

Usually IC50 stands for the concentration needed to halve the response being measured. As for `Cc1ccc(NS(=O)(=O)c2c(C)[nH]c(C)c2C(=O)N2CCCC2)cc1Cl` [Cmp. 1], on D3 DAR [1], the “inhibition of [3H]-methylspiperone binding to the D3 DAR” value is recorded as “lacks ability to inhibit the binding”. The “antagonist activity at the D2 DAR, BRET β-arrestin” value at D2 DAR [2] was “lacked antagonist activity”. At D3 DAR [3] (5 min, read-out: D3 Go BRET Imax), the Emax is greater than 100%. The IC50 against D3 DAR [3] is 10 to 50 µM; at 5-HT6 receptor, greater than 50 µM. Moreover, the “antagonist activity at the D2 DAR, Go activation” value at D2 DAR [4] is listed as “lacked antagonist activity”. Moreover, the “antagonist activity at the D2 DAR, cAMP CAMYEL” value on D2 DAR [5] is reported as “lacked antagonist activity”. For the same compound, in [6], the “activity at other dopamine receptor subtypes” value is “no activity”. Moreover, the “D2 DAR Imax” value at D2 DAR [7] is given as “NA (“NA” indicates not active)”. Besides, the “antagonist activity at the D2 DAR, pERK” value at D2 DAR [8] was “lacked antagonist activity”.
